Patent US10071051B2, “WT1 peptide cancer vaccine composition for transdermal administration” (NITTO DENKO CORPORATION, priority 2013, dated 2018)

System: IFN-γ-producing cells (antigen-specific cellular immunity)
Assay: Mouse immunization test 2 (tape preparation), IFN-γ ELISPOT
Assay type: in vivo, genetically modified mouse
Conditions: compared with acid-free comparative example
Procedure: (§1) Mouse immunization test was performed with the cream formulations using a model animal for immunological evaluation. Evaluation of the immunity induction level was performed by the ELISPOT method. Specifically, the hair of the back of the mouse was cut. The mouse was kept until it recovered from the skin damage due to the hair cutting. After that, a sample was applied to the back of the mouse for the predetermined time, and then removed. Then, the mouse was kept for predetermined days and the level of the antigen-specific cellular immunity was evaluated. After predetermined days from the application of the sample, the spleen was isolated and a spleen cell suspension was prepared. Spleen cells (3×10^6 cells/well) and the antigen peptide (100 μM) together with the culturing medium were placed into a well of an ELISPOT plate on which an anti-mouse IFN-γ antibody had been immobilized. The plate was cultured for 20 hours under the condition of 37° C. and 5% CO2. The number of the spots representing IFN-γ-producing cells (spot number/3×10^6 cells) was evaluated by the ELISPOT method. In all cases, 4 mg of the cream formulation was applied once for 24 hours and the spleen was isolated 6 days after the completion of the application.
Mouse Immunization Test 2 (Tape Preparation)
Using thus obtained tape preparation, mouse immunization test 2 was performed in the same manner as in the mouse immunization test 1. The preparation was applied once for 24 hours/week and a spleen was isolated 6 days after administration. Genetically modified mouse which can be used to evaluate the cellular immunity inducing ability of the HLA-A*0201 type MHC restricted peptide was used as model animal for immunological evaluation.
In Example 69, the skin was injured with a microcutter (MICRO FEATHER No. 7330G, manufactured by FEATHER) before the application of the preparation.

| SMILES | cellular immunity induction, in words (acid blended in tape preparation) |
| --- | --- |
| CCCCCCCCCC(=O)O [decanoic acid] | strong cellular immunity was induced |
| CC(C)CCCCCCCCCCCCCCC(=O)O [isostearic acid] | excellent results |
| CC(O)C(=O)O (stereo not drawn) [lactic acid] | excellent results |
| CCCCCCCCCCCC(=O)O [lauric acid] | excellent results |
| CCCCCCCCCCCCCC(=O)O [myristic acid] | excellent results |
| CCCCCCCC/C=C\CCCCCCCC(=O)O [oleic acid] | excellent results |

System: IFN-γ-producing cells (antigen-specific cellular immunity)
Assay: Mouse immunization test 3 (liquid formulation for external use), IFN-γ ELISPOT
Assay type: in vivo, C57BL/6 mouse
Conditions: compared with acid-free comparative example
Procedure: as §1
Mouse Immunization Test 3 (Liquid Formulation for External Use)
Using a liquid formulation for external use produced as described above, mouse immunization test was performed in the same manner as that in the mouse immunization test 1. The dose was 67 μL as described above. The liquid formulation was applied once for 24 hours/week and a spleen was isolated 6 days after completion of the application. The mouse used was a C57BL/6.

| SMILES | cellular immunity induction, in words (acid added to liquid formulation) |
| --- | --- |
| O=C(O)CC(O)C(=O)O (racemic) [malic acid] | effective |
| O=C(O)CC(O)(CC(=O)O)C(=O)O [citric acid] | effective |
| CC(O)C(=O)O (stereo not drawn) [lactic acid] | effective |
| O=C(O)/C=C\C(=O)O [maleic acid] | effective |
| CS(=O)(=O)O [methanesulfonic acid] | effective |
| O=C(O)c1ccccc1O [salicylic acid] | effective |
